Measured values from patent US8242098B2, “Methods of treating hormone-related conditions using thio-oxindole derivatives” (Wyeth LLC, priority 2002, dated 2012).

What was measured:
androgen receptor (AR) [1] = biological target: T1, androgen receptor (AR) (Mus musculus, UniProt P19091); assay: AR agonistic activity, PRE-tk-luciferase reporter in L929 cells; assay type: cell-based; settings: at the maximum concentration tested (i.e., 10 nM)
T1 construct: in the L929 cells which express the AR but not the PR; endogenous in cells; host or cells: L929 cells
T1 sequence (P19091 1-899): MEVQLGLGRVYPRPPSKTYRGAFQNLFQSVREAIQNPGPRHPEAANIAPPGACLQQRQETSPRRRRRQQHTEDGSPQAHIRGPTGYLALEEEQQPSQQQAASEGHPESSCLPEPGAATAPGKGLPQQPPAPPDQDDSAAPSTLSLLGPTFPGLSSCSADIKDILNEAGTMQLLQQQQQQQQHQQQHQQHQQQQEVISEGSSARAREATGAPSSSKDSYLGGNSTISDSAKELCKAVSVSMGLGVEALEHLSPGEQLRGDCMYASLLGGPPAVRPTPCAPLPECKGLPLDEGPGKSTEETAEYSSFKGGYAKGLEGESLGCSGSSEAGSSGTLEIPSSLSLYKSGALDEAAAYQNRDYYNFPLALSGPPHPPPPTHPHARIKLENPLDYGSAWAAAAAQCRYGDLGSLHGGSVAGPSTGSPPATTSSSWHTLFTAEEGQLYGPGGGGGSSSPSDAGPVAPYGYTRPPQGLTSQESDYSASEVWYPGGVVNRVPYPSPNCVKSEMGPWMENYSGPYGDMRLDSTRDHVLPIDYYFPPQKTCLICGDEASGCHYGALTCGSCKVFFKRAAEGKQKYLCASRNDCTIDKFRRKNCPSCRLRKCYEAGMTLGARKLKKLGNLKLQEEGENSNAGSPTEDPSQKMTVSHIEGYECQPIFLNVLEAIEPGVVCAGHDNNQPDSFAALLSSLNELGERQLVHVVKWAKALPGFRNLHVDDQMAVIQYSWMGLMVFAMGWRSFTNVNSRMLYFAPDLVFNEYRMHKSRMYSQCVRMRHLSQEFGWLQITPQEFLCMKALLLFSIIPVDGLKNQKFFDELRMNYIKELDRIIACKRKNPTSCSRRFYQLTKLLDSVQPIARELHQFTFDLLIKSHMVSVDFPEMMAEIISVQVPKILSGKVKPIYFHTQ
Protocol: (§1) The androgen receptor (AR) agonistic and antagonistic activity of the compositions of the invention in the L929 cells which express the AR but not the PR was evaluated as described in Zhang et al., Steroids, 65(10-11): 637-643 (October-November 2000).
(§2) Cells were plated in 96-well plates at 25,000 cells/well in DMEM (BioWhittaker) with 10% (v/v) fetal bovine serum (FBS). The next day, cells were infected with the adenovirus PRE-tk-luciferase reporter construct (2×10^9 pfu/ml particles) and kept in DMEM containing 10% charcoal stripped FBS for an additional 24 hours. […] To test the anti-androgenic activity, cells were co-treated with 3 nM DHT. Luciferase activity was measured 24 hours following the treatment.

androgen receptor (AR) [2] = biological target: T1, androgen receptor (AR); assay: Anti-androgenic activity, PRE-tk-luciferase reporter in L929 cells co-treated with 3 nM DHT; assay type: cell-based; settings: nine point dose response
Protocol: as §1, §2

## Cn1c(C#N)ccc1-c1ccc2c(c1)C1(CCCCC1)C(=NC#N)N2 [5′-(5-Cyano-1-methyl-1H-pyrrol-2-yl)spiro[cyclohexane-1,3′-[3H]indol]-2′-ylidenecyanamide]
Androgen receptor (AR) [1]
  agonistic activity: only marginal agonistic activity
Androgen receptor (AR) [2]
  antagonistic activity: significant antagonistic activity
